Test results from ChEMBL document CHEMBL1201862, “PubChem BioAssay data set” (2004).
Activity calls are given as the source filed them.

Legend:
[1] = target: T1, E3 ubiquitin-protein ligase XIAP (Homo sapiens, UniProt P98170); assay: Counter Screen using XIAP-Bir3 for Chemical Antagonists of Bir1/2 domains of IAP-family anti-apoptotic proteins. [Related pubchem assays (depositor defined):AID1018, AID1449, AID1514, AID1638, AID1749, AID1750, AID488957, AID488963]
[2] = target: T1, E3 ubiquitin-protein ligase XIAP; assay: XIAP antagonists, biochemical, IAP family, fluorescence polarization (AID 1018); format: functional
[3] = HEp-2 cell cytotoxicity, dose response, cytotoxicity control for RSV inhibitor project, HTS (AID 2410); format: functional; settings: human respiratory syncytial virus
[4] = target: T2, Short transient receptor potential channel 4 (Mus musculus, UniProt Q9QUQ5); assay: mouse TRPC4 channel activators, dose response, cell-based, HEK293 TRPC4/mu-opioid, Fluo-4 calcium (AID 434937); format: functional
T2 sequence (Q9QUQ5 whole entry): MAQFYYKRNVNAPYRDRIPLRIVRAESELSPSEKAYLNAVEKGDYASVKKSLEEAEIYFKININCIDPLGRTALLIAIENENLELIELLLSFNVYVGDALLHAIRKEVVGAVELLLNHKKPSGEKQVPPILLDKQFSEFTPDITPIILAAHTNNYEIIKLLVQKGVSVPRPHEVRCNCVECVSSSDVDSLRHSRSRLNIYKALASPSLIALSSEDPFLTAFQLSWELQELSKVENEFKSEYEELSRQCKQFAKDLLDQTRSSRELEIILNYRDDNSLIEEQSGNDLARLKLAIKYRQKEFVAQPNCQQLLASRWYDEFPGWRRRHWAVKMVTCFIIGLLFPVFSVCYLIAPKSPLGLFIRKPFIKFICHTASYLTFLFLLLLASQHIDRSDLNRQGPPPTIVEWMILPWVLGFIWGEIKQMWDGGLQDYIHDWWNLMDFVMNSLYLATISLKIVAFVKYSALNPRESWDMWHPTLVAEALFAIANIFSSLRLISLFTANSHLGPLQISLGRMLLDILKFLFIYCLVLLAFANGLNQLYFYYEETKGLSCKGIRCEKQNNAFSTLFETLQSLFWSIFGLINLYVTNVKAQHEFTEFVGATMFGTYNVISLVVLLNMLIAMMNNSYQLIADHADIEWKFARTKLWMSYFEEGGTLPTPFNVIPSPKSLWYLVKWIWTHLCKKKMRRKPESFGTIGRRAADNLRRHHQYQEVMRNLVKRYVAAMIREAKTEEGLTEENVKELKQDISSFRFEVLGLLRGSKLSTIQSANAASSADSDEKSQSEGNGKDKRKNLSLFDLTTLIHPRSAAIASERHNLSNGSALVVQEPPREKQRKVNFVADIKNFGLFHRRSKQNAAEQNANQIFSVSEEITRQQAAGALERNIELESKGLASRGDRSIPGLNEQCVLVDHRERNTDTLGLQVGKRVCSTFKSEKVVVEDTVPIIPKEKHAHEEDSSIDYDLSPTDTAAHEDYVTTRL

[5] = target: Delta-type opioid receptor (Homo sapiens, UniProt P41143); assay: Counterscreen for agonists of heterodimerization of the mu 1 (OPRM1) and delta 1 (OPRD1) opioid receptors: Luminescence-based cell-based high throughput dose response assay to identify agonists of OPRD1 homodimerization. [Related pubchem assays (depositor defined):AID504326, AID504355, AID504692, AID504904, AID504905]; format: functional
Delta-type opioid receptor, sequence (P41143 whole entry): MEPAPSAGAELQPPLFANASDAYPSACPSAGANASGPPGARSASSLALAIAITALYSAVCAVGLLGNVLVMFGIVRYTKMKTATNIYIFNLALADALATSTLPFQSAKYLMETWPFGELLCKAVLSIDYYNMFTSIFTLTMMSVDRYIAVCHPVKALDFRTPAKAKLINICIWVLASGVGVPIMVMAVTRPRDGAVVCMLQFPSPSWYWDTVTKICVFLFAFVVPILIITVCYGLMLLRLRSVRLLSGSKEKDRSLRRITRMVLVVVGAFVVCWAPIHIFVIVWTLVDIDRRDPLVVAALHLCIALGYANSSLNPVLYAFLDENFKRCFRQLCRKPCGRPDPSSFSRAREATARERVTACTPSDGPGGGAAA

[6] = target: 5-hydroxytryptamine receptor 5A (Homo sapiens, UniProt P47898); assay: Counterscreen for agonists of OPRM1-OPRD1 heterodimerization: luminescence-based cell-based high throughput dose response assay to identify agonists of 5-hydroxytryptamine (serotonin) 5A receptor (HTR5A). [Related pubchem assays (depositor defined):AID504326, AID504355, AID504692, AID504904, AID504905]; format: functional
5-hydroxytryptamine receptor 5A, sequence (P47898 whole entry): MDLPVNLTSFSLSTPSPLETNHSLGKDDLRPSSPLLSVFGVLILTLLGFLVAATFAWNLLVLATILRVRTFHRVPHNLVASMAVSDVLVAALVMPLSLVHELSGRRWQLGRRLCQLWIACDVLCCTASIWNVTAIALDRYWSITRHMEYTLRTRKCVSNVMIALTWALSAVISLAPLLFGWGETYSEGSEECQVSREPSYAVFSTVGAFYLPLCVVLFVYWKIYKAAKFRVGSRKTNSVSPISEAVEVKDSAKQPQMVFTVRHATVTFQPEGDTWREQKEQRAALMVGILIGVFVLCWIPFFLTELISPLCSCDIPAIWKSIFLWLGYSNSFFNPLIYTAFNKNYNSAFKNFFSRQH

[7] = target: T3, Apoptotic protease-activating factor 1 (Homo sapiens, UniProt O14727); format: functional
T3 sequence (O14727 whole entry): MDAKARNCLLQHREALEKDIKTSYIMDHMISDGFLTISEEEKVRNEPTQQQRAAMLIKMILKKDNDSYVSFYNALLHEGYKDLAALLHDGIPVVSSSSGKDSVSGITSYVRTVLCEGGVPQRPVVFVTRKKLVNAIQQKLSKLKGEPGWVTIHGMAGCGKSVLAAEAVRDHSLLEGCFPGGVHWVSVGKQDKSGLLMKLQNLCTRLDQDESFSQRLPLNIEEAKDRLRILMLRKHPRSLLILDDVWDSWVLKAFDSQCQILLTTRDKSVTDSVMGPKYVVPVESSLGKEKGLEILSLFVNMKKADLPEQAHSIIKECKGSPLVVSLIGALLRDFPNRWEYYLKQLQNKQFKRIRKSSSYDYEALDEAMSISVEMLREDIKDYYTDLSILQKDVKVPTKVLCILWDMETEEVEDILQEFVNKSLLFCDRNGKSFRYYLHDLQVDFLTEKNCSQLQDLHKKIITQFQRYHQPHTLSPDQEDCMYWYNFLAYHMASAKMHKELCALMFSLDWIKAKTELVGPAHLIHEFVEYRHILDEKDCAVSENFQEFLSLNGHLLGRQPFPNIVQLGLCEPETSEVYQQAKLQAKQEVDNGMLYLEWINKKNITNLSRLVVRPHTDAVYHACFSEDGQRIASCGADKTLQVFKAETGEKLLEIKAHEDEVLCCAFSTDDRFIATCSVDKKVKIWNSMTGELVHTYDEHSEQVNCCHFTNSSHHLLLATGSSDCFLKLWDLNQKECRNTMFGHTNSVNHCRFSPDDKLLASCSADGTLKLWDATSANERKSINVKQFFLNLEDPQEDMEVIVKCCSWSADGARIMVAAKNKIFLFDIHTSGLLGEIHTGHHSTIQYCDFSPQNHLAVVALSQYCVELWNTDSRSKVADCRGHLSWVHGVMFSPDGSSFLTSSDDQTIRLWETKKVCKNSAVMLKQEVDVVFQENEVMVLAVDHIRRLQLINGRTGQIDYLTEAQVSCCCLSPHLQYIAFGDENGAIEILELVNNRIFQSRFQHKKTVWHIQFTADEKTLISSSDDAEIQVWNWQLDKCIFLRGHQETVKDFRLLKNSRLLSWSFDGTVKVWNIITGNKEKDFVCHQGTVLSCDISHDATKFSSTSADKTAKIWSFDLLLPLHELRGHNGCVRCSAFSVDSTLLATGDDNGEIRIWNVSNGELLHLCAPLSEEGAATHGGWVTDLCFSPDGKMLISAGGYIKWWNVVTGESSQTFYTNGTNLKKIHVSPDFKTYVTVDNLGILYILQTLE

[8] = target: T4, Ubiquitin-conjugating enzyme E2 N (Homo sapiens, UniProt P61088); format: functional;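 note: Dose-response confirmation in a TR-FRET assay detecting UBC13-driven polyubiquitin chain formation, inhibition measured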
T4 sequence (P61088 whole entry): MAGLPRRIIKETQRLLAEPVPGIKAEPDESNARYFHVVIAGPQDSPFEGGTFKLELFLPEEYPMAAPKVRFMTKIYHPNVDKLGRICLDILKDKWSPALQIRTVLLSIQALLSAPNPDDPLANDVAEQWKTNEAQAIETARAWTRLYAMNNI

[9] = target: T5, Type-1 angiotensin II receptor (Homo sapiens, UniProt P30556); assay: AT1 receptor agonists, dose response, selectivity assay for APJ receptor agonist project, cell-based, uHTS hits (AID 488865); format: functional;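 note: beta-arrestin recruitment to AT1 measured by enzyme fragment complementation luminescence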
T5 sequence (P30556 whole entry): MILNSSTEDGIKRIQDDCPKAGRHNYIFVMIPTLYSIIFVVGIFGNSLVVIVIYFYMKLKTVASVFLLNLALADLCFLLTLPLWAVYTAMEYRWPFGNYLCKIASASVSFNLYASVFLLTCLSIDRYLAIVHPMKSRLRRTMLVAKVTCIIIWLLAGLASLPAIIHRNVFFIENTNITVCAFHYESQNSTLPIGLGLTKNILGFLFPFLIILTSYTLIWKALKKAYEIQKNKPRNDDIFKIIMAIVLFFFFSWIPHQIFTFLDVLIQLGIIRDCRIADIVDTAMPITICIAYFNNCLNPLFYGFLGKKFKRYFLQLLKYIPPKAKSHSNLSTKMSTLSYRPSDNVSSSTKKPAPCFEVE

Mu-type opioid receptor = Mu-type opioid receptor (Homo sapiens, UniProt P35372); assay: Counterscreen for agonists of heterodimerization of the mu 1 (OPRM1) and delta 1 (OPRD1) opioid receptors: Luminescence-based cell-based high throughput dose response assay to identify agonists of OPRM1 homodimerization.; format: functional;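 note: U2OS cells expressing OPRM1 and beta-arrestin as split beta-galactosidase partners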
Mu-type opioid receptor, sequence (P35372 whole entry): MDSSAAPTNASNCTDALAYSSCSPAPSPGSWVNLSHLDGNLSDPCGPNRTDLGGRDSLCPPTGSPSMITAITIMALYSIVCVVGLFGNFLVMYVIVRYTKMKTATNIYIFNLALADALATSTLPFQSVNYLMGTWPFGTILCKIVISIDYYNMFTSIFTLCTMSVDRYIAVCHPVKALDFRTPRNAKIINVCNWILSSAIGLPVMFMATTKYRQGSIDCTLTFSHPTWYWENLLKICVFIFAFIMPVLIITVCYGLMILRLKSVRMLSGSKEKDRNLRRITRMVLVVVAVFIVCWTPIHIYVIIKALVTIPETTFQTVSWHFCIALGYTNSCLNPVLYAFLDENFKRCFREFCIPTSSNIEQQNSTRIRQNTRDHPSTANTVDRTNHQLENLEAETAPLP

Coagulation factor XII = target: T6, Coagulation factor XII (Homo sapiens, UniProt P00748); assay: Factor XIIa Dose Response Confirmation from Single Well HTS. [Related pubchem assays (depositor defined):AID701]; format: functional
T6 sequence (P00748 whole entry): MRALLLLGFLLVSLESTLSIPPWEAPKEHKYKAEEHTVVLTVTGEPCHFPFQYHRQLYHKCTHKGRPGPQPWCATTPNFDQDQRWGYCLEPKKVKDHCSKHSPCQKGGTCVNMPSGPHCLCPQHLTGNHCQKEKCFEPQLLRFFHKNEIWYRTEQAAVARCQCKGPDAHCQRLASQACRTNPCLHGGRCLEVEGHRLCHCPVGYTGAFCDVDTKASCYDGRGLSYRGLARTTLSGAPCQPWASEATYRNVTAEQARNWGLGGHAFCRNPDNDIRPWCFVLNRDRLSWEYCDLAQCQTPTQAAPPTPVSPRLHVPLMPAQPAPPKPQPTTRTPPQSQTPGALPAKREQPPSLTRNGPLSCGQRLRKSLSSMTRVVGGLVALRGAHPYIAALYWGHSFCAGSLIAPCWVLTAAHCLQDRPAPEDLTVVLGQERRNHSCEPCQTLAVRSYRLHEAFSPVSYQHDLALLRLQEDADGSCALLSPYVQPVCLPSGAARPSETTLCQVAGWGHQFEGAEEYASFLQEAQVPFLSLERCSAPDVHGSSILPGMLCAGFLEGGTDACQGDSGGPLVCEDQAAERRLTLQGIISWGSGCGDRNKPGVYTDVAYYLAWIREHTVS

T1 sequence (P98170 whole entry): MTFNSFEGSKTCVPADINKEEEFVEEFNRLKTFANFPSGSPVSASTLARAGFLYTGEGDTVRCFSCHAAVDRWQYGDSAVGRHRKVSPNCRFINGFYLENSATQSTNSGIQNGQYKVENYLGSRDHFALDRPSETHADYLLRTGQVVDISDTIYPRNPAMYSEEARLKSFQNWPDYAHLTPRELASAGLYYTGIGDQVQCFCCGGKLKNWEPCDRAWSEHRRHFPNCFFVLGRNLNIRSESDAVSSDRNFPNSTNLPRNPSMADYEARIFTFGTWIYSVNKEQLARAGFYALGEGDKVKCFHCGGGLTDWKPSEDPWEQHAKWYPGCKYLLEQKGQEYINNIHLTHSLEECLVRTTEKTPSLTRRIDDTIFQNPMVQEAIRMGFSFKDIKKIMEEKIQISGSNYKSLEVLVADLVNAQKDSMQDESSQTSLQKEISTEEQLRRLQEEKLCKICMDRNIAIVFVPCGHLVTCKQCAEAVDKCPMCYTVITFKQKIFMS

Q: Which results are given for `CSc1nc(N)nc(SCC(=O)Nc2cccc(F)c2)c1C#N`?
A: IC50 [1]: > 100 µM (inactive); IC50 [2]: > 100 µM (not active)

Q: For `CN(C)CCCN(C(=O)c1ccc(S(=O)(=O)N2CCc3ccccc3C2)cc1)c1nc2ccc(F)cc2s1`, which CC50 [3] is on record?
A: 31.1 µM (active)

Q: And the EC50 [4]?
A: 0.596 µM (active)

Q: And the EC50 [5]?
A: > 92.5 µM (inactive)

Q: What about the EC50 [6] of the same compound?
A: > 92.5 µM (inactive)

Q: And the IC50 [7]?
A: 47.9 µM (active)

Q: And the IC50 [8]?
A: > 20 µM (inactive)

Q: What about the EC50 [9] of the same compound?
A: > 100 µM (inactive)

Q: And the EC50 (Mu-type opioid receptor)?
A: 3.28 µM (active)

Q: Which IC50 (Coagulation factor XII) does the source give for `Cc1cc(OC(=O)c2ccco2)c2c(C)cc(=O)oc2c1` here?
A: > 50 µM (inconclusive)
